These results are taken from patent US20260356814A1, “INDOLINE DERIVATIVES AS SEROTONERGIC AGENTS USEFUL FOR THE TREATMENT OF DISORDERS RELATED THERETO” (MINDSET PHARMA INC., priority 2022, published 2026).

The target in data set [1] is T1, human 5-HT1A receptor (Homo sapiens, UniProt P08908).
T1 construct: expressed in transfected cells; host or cells: CHO (HTR1A&Ga15-CHO)
T1 sequence (P08908 1-422): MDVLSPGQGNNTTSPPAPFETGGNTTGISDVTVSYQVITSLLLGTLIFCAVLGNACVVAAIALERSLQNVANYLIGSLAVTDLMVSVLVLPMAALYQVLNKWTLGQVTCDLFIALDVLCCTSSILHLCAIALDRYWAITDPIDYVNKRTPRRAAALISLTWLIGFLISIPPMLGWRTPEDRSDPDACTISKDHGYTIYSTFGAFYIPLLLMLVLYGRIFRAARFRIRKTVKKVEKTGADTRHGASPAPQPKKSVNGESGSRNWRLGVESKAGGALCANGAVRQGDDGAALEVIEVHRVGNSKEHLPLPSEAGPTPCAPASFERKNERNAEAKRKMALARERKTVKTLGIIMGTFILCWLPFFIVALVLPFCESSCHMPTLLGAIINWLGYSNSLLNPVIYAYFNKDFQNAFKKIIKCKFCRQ
The experiment in a line: Human 5-HT1A: Functional FLIPR assay (agonist mode). The format is cell-based. As to conditions: @10 μM (head); footnote: curve fitting with activation (%) @ 10 mM with RFU; RFU=Fmax−Fmin. How it is done:
The potential excitatory effects of compounds targeting on 5-hydroxytryptamine receptor 1A (5-HT1A) under agonist mode was assessed.
HTR1A&Ga15-CHO cells were cultured in DMEM/F12 medium containing 10% dialyzed FBS, 1x penicillin-streptomycin and 600 μg/mL Hygromycin B. The cells were passaged about three times a week, maintained between ~30% to ~90% confluence.
• 1. The cell culture medium (DMEM/F12 medium containing 10% dialyzed FBS, 1x penicillin-streptomycin and 600 μg/mL Hygromycin B), TrypLE™ Express and DPBS was warmed to R.T. in advance. • 2. The cell culture medium was removed from flask. Washed cells with DPBS. • 3. 1 mL TrypLE™ Express was added to the flask, mixed well by gentle shaking and cells were incubated at 37° C. for a few minutes. • 4. The cells were checked for morphological change under microscope, the digestion was stopped by adding 2 mL cell culture medium to the flask when most of cells turned to round. • 5. The cell suspension was transferred into a 15 mL centrifuge tube, and then centrifuged at 1,200 rpm for 5 minutes. • 6. The supernatant was removed. The cell pellet were resuspended with 2 mL cell culture medium. • 7. The cell density were counted using cell counter. Only cells with >85% viability were used for the assay. • 8. Cells were diluted to 4×10^5/mL with cell culture medium. • 9. 30 μL/well cell suspensions were added into a 384-well cell plate (The cell density was 12,000 cells/well). • 10. The cell plate was incubated overnight at 37° C., 5% (v/v) CO2.
• 1. On the day of experiments, culture medium was removed from the cell plate. • 2. 10 μL of assay buffer (20 mM HEPES, in 1×HBSS, pH 7.4) was added to each well of the cell plate. • 3. 2× dye solution was prepared following the manufacture's instruction of the FLIPR® Calcium 6 assay kit: • i. The dye was diluted with assay buffer. • ii. probenecid was added to the final concentration of 5 mM. • iii. Vortexed vigorously for 1-2 minutes, adjust pH to 7.4. • 4. 10 μL of 2×dye solution was added to each well of the cell plate. • 5. The cell plate was placed on plate shaker, followed by shaking at 600 rpm for 2 minutes. • 6. The plate was incubated at 37° C. for 2 hours followed by an additional 15-minute incubation at 25° C. 3.4 Prepare 3×compounds. • 1. Serotonin was prepared to the concentration of 10 mM with DMSO, 3-folds serial dilutions were performed with DMSO. • 2. Prepare the test compound to the concentration of 10 mM with DMSO, preform 3-folds serial dilutions with DMSO. • 3. The compounds were added to a 384-well compound source plate. • 4. 90 nL/well of serial diluted compounds were transferred from source plate to a 384-well compound plate by using an Echo. • 5. 30 μL/well of assay buffer was added to the compound plate. • 6. The plate was mixed on-plate shaker for 2 minutes. 3.5 FLIPR assay • 1. After the cells incubate with dye solution, the cell plate, compound plate containing 3×compounds and FLIPR tips were placed into FLIPR. • 2. 10 μL of 3×compounds were transferred from the compound plate to the cell plate by FLIPR. • 3. The plate was read for 160 sec with 1 sec interval to obtain the data of agonist mode.
(§1) • 1. The normalized fluorescence reading (RFU) was calculated as shown below, wherein Fmax and Fmin stand for maximum and minimum of calcium signal during defined time window:
RFU=Fmax−Fmin • 2. EC50 was calculated by fitting RFU against log of compound concentrations with Hill equation using XLfit.

Data set [2] has as its target human 5-HT2A receptor (Homo sapiens, UniProt P28223). The experiment in a line: Human 5-HT2A: Radioligand binding assay ([3H]-ketanserin). As to conditions: [3H]-ketanserin displacement, 27° C., 90 min, pH 7.4; read-out: h5-HT2A, IC50. The procedure:
Exemplary compounds of Formula I were evaluated functionally using FLIPR assay for their effect on h5-HT2A receptor under agonist mode. The objective of this study was to evaluate the binding properties of exemplary compounds of Formula I on 5-hydroxytryptamine receptor 2A (5-HT2A). • Human 5-HT2A: Radioligand binding assay:
• i. The assay buffer was prepared following the table below.
• Adjust pH to 7.4 followed by […] sterile filtration • ii. 8 doses of reference and test compounds starting from 10 mM stock solution as required was prepared by 5-fold serial dilutions with 100% (v/v) DMSO. • iii. UniFilter-96 GF/B plate was pretreated: • a. 50 μl/well of 0.5% (v/v) PEI was added to UniFilter-96 […] plates. The plates were sealed and incubated at 4° C. for 3 hrs. • b. After incubation, the plates were washed 3 times with ice-cold wash buffer (50 mM Tris, pH7.4). • iv. The assay plate was prepared: • a. Cell membrane was diluted with assay buffer and 330 μl/well was added to 96 round deep well plates to reach a concentration of 20 μg/well. • b. 8 concentrations of reference or test compounds were prepared and 110 μl/well was added to 96 round deep well plates. • c. [3H]-ketanserin was diluted with assay buffer to 5 nM (5X final concentration) and 110 μl/well was added to 96 round deep well plates. • v. The plate was centrifuged at 1000 rpm for 30 secs and then agitated at 600 rpm, R.T. for 5 min. • vi. The plates were sealed and the plate incubated at 27° C. for 90 min. • vii. The incubation was stopped by vacuum filtration onto GF/B filter plates followed by 4 times washing with ice-cold wash buffer (50 mM Tris, pH7.4). • viii. The plates were dried at 37° C. for 45 min. • ix. The filter plates were sealed and 40 μl/well of scintillation cocktail was added. • x. The plate was read by using a Microbeta2 microplate counter.
• 1. For reference and test compounds, the results were expressed as % Inhibition, using the normalization equation: N=100−100×(U−C2)/(C1-C2), where U is the unknown value, C1 is the average of high controls, and C2 is the average of low controls. • 2. The IC50 was determined by fitting percentage of inhibition as a function of compound concentrations with Hill equation using XLfit.

Data set [3] has as its target T2, human 5-HT2A (h5-HT2A) receptor (Homo sapiens, UniProt P28223).
T2 construct: expressed in transfected cells; host or cells: HEK293 (HTR2A&Ga15-HEK293, tetracycline-induced)
Briefly: FLIPR assay: human 5-HT2A (agonist mode). The format is cell-based. To be noted: @10 μM (head); footnote: curve fitting with activation (%) @ 10 mM with RFU; RFU=Fmax−Fmin. How it is done:
Assessment of the effect of exemplary compounds of Formula I targeting on human 5-HT2A (h5-HT2A) receptor under agonist mode.
HTR2A&Ga15-HEK293 cells were cultured in DMEM medium containing 10% dialyzed FBS and 1x penicillin-streptomycin, 100 μg/mL Hygromycin B and 300 μg/mL G418. The cells were passaged about three times a week, maintained between ~30% to ~90% confluence.
• 1. The cell culture medium (DMEM medium containing 10% dialyzed FBS and 1× penicillin-streptomycin, 100 μg/mL Hygromycin B and 300 μg/mL G418), TrypLE™ Express and DPBS to R.T. was warmed in advance. • 2. For induction, 1 μg/ml tetracycline (final concentration) was added to cell culture medium and incubated for 48 hours prior to seeding cells into plate at 37° C., 5% (v/v) CO2. The cell culture medium was removed from flask. Cells were washed with DPBS. • 3. 2 mL TrypLE™ Express was added to the flask, mixed well by gentle shaking and cells were incubated at 37° C. for a few minutes. • The cells were checked for morphological change under microscope, the digestion was stopped by adding 4 mL cell culture medium to the flask when most of cells turned to round. • 5. The cell suspension was transferred into a 15 mL centrifuge tube, and then centrifuged at 1,200 rpm for 5 minutes. • 6. The supernatant was removed. The cell pellet was resuspended with 2 mL cell culture medium. • 7. The cell density was counted using cell counter. Only cells with >85% viability were used for the assay. • 8. Cells were diluted to 6.67×10^5/mL with cell culture medium. • 9. 30 μL/well cell suspensions added into a 384-well cell plate (The cell density was 20,000 cells/well). • 10. The cell plate was incubated overnight at 37° C., 5% (v/v) CO2. 2.3 Cell handling • 1. On the day of experiments, culture medium was removed from the cell plate. • 2. 10 μL of assay buffer (20 mM HEPES, in 1×HBSS, pH 7.4) was added to each well of the cell plate. • 3. 2×dye solution was prepared following the manual of the FLIPR® Calcium 6 Assay Kit: • i. The dye was diluted with assay buffer. • ii. Probenecid was added to the final concentration of 5 mM. • iii. Vortexed vigorously for 1-2 minutes. • 4. 10 μL of 2× dye solution was added to each well of the cell plate • 5. The cell plate was placed on plate shaker, followed by shaking at 600 rpm for 2 minutes. • 6. The plate was incubated at 37° C. for 2 hours followed by an additional 15-minute incubation at 25° C. 2.4 Prepare 3×compound • 1. Serotonin HCl was prepared to the concentration of 10 mM with DMSO. • 2. The test compounds were prepared to the concentration of 10 mM with DMSO. • 3. The compounds were added to a 384-well compound source plate. • 4. 3-folds serial dilutions were performed with DMSO. • 5. 90 nL/well of serial diluted compounds was transferred from source plate to a 384-well compound plate by using an Echo. • 6. 30 μL/well of assay buffer (20 mM HEPES in 1x HBSS, pH 7.4) was added to the compound plate. • 7. The plate was mixed on-plate shaker for 2 minutes.
• 1. After the cells were incubated with dye solution, the cell plate, compound plate containing 3×compounds and FLIPR tips were placed into FLIPR. • 2. 10 μL of 3×compounds transferred from the compound plate to the cell plate by FLIPR. • 3. The plate was read for 160 sec with 1 sec interval and the data of agonist mode was obtained.
as §1
RFU=Fmax−Fmin • 2. EC50 by fitting RFU against log of compound concentrations with Hill equation was calculated using XLfit.
The following procedure can also be followed: • 1. Cells are cultured in cell culture medium (DMEM containing 10% FBS, 1× penicillin-streptomycin 300 μg/ml G418 and 100 μg/ml hygromycin B) at 37° C., 5% (v/V) CO2. • 2. One day before the assays, the cells are detached using TrypLE™ Express and cells are counted using cell counter.

For data set [4], the system named is 5-HT2 receptor. To be noted: daily administration; cited from earlier work.
The subject of data set [5] is brain's default mode network. As to conditions: intravenously administered; cited from earlier work.
Data set [6] has as its system depression and anxiety associated with life-threatening disease. As to conditions: in a supportive setting; cited from earlier work.
Data set [7] can be described thus: Plasma stability, mouse. It is filed as in vitro ADME. To be noted: 37° C. How it is done:
(§2) • a. […] The final concentration of organic solvents was 0.5%. The assay was performed in duplicated. • b.
(§3) All calculations were carried out using Microsoft Excel.

Data set [8] in a line: Plasma stability, human. The format is in vitro ADME. As to conditions: 37° C. How it is done:
as §2, §3

Data set [9] in a line: Plasma stability, rat. To be noted: 37° C. The format is in vitro ADME. How it is done:
as §2, §3

[10] abbreviates: 30 min, read-out: Remaining Percentage (%), 30 min.
Where [11] appears, read: >255.85 if remaining at 60 min greater than 85%.
Setting [12] is: 60 min, read-out: Remaining Percentage (%), 60 min.

Structures are written as SMILES. Entries after “also recorded” stand apart in the source; their conditions may differ.

human 5-HT2A receptor, sequence (P28223 whole entry): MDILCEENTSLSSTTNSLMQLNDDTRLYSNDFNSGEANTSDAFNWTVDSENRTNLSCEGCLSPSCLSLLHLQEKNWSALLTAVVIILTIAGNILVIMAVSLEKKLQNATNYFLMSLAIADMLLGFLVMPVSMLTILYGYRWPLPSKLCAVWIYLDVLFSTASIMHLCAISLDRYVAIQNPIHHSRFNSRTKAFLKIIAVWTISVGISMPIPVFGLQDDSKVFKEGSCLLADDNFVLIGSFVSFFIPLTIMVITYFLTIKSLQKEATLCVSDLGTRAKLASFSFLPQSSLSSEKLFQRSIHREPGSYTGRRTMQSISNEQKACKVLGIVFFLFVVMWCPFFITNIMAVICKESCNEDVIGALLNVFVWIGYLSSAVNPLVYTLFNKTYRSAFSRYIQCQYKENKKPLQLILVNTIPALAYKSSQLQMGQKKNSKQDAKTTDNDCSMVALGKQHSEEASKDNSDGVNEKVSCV
T2 sequence (P28223 whole entry): as above

In the case of `CN(C)CCc1c[nH]c2cccc(O)c12` [Psilocin, 4-hydroxy-N,N-dimethyltryptamine, reference compound], the “RFU@10 μM” value in data set [1] is 140 RFU.
For the compound `COc1ccc2c(c1)N(C[C@@H]1CCCN1C)CC2` [(S)-I-58, (S)-6-Methoxy-1-((1-methylpyrrolidin-2-yl)methyl) indoline], the half-inhibitory concentration (IC50) in [2] was above 30 µM. For the same compound, the “RFU@10 μM” value in data set [3] turned out to be 203 RFU.
Take `CCN(CC)C(=O)[C@@H]1C=C2c3cccc4[nH]cc(c34)C[C@H]2N(C)C1` [LSD]: in data set [4], the “5-HT2 receptor density in rat brain” value is recorded as “selectively decreased 5-HT2 receptor density in the rat brain; also recorded: reduce 5-HT2 receptor density in rat brain”. Also, the “oscillatory power in areas of the brain's default mode network” value in data set [5] is “decreases in oscillatory power in areas of the brain's default mode network”. Besides, the “anti-depressant and anxiolytic effects” value in data set [6] is “significant and sustained anti-depressant and anxiolytic effects”.
Regarding `CC(C)[N+](C)(CCOC(=O)C1c2ccccc2Oc2ccccc21)C(C)C` [Propantheline, reference compound], the “Remaining Percentage (%), 0 min” value in data set [7] (0 min) and in data set [8] (0 min) was 100.00% in each case. For the same compound, the share remaining at 0.5 h in data set [7] (setting [10]) is 61.6%; in data set [8] (setting [10]) it was 29%. Moreover, the half-life in data set [7] (setting [11]) came to 37.1 min; in data set [8] (setting [11]), 11.4 min. Besides, the amount remaining at 1 h in [8] (setting [12]) amounted to 2.58%.
On to `CC[C@H](C)C(=O)O[C@H]1C[C@@H](C)C=C2C=C[C@H](C)[C@H](CC[C@@H]3C[C@@H](O)CC(=O)O3)[C@H]21` [Lovastatin, reference compound], for which, in [9] (0 min), the “Remaining Percentage (%), 0 min” value came to 100.00%. For the same compound, the amount remaining at 0.5 h in data set [9] (setting [10]) was 0.61%. Moreover, the share remaining at 1 h in data set [9] (setting [12]) was 0.33%.
